Laboratory results taken from patent US20250295653A1, “Use Of Glycine Transporter- 1 Antagonists As Vascular Dementia And/Or Stroke Prophylactic/Treatment Agents” (Recherches Neuro-Hippocampe Inc., priority 2022, published 2025).
“Also recorded” adds a separate entry of the source. Each block holds one molecule with its values, some of them ahead of it.

Key:
[1] = target: T1, NMDAR (Mus musculus, UniProt P35438); experiment: Whole-cell voltage-clamp recordings of evoked NMDAR-EPSCs in CA1 pyramidal cells of acute hippocampal slices; type: cell-based; details: for effect of a low dose after priming of NMDARs with high doses of glycine or D-serine: subsequent application of a low dose
[2] = system: NMDAR; experiment: as above; type: cell-based, mouse; details: 1 mM glycine, acute slices, cells infected with AAV-GluN1-A714L
[3] = system: NMDAR (GluN1-WT or GluN1-A714L with GluN2A) in HEK293 cells; details: 1 mM glycine
[4] = 175 mg, clinical trials; cited from earlier work
[5] = target: T1, NMDAR; experiment: NMDAR-EPSC trains in acute slices during the oxygen-glucose deprivation (OGD) paradigm; type: cell-based; details: NMDAR-EPSC trains (20 Hz) recorded with GO
Excerpt: Whole-cell electrophysiology on hippocampal slices and HEK293 cells. Whole-cell voltage-clamp recordings were obtained from visually identified CA1 pyramidal cells from acute hippocampal brain slices (300 μm thick) in oxygenated artificial cerebrospinal fluid (ACSF) as previously described (Martina et al., 2004, 2005). The cells were voltage-clamped at −65 mV using cesium methane sulfonate based internal solution and postsynaptic currents were evoked by electrical stimulation of the Schaffer collaterals with a bipolar stimulating electrode positioned in the Stratum radiatum. The intensity of the stimulation was adjusted to obtain evoked excitatory postsynaptic currents (EPSCs). […] To isolate the NMDAR-EPSC, a low concentration of MgCl2 (0.13 mM) ACSF was used wherein the CaCl2 concentration was increased to 3.5 mM to maintain cation balance.
Oxygen-glucose deprivation paradigm. To mimic ischemia, the acute slices were challenged by an oxygen-glucose deprivation paradigm (OGD) modified from Rossi et al. (Rossi et al., 2000). In this paradigm, external glucose was replaced with 7 mM sucrose, and the external solution was saturated with 95% N2/5% CO2 instead of 95% O2/5% CO2. Iodoacetate and cyanide were also added to the OGD external solution to block glycolysis and oxidative phosphorylation.
Purification of glycine oxidase. […]

- effect on evoked NMDAR-EPSC amplitude ([1]; 10 μM D-serine, WT and SR−/− mice): potentiated
- effects of increasing concentrations on NMDAR-EPSC amplitudes ([1]; D-serine, WT mice): dose-dependent
- dose required to induce a decrease in NMDAR-EPSC amplitude ([1]; SR−/− mice): 2 mM
- dose required to induce a decrease in NMDAR-EPSC amplitude ([1]; WT mice): 1 mM
- dose-response curve of NMDAR-EPSC amplitudes relative to that of glycine ([1]; WT mice): left-shifted
- effect of a low dose after priming of NMDARs with high doses of glycine or D-serine [1]: induced GINI
Molecule: N[C@H](CO)C(=O)O [D-serine]

- effect on NMDAR-EPSC amplitude ([1]; 250 μM glycine, GlyT1+/− mice): significantly inhibited
- effect on NMDAR-EPSC amplitude ([1]; 250 μM glycine, WT mice): potentiated
- effect on NMDAR-EPSC amplitude ([1]; 1 mM glycine with low Ca2+ (1 mM)): increase in NMDAR-EPSC amplitude
- difference in NMDAR-EPSC amplitude between WT and GlyT1+/− mice ([1]; bath application of 10 μM or 1 mM glycine): no significant effect
- effect of a low dose after priming of NMDARs with high doses of glycine or D-serine [1]: induced GINI
Molecule: NCC(=O)O [glycine]
- effect on NMDAR-EPSC amplitude ([1]; bath application of low glycine concentrations (below / ≤250 μM), WT slices): increased; also recorded: potentiated in a dose-dependent fashion
- effect on NMDAR-EPSC amplitude ([1]; high glycine concentration (1 mM), normal Ca2+ (3.5 mM), WT slices): significantly reduced; also recorded: significant decrease
- effect on NMDAR-EPSC amplitudes [2]: did not decrease
- effect on NMDAR amplitude ([3]; cells expressing GluN1-A714L): significantly increased
- effect on amplitude of the NMDAR-EPSC ([3]; cells expressing GluN1-WT): significant decrease

- effect on the decrease of the NMDAR-EPSC amplitude following OGD [5]: abolished
B1: GO: an enzyme that catalyzes the breakdown of glycine; His-tagged, from Bacillus subtilis, expressed in E. coli (protein, UniProt O31616 1-369, looked up)
Glycine oxidase: MKRHYEAVVIGGGIIGSAIAYYLAKENKNTALFESGTMGGRTTSAAAGMLGAHAECEERDAFFDFAMHSQRLYKGLGEELYALSGVDIRQHNGGMFKLAFSEEDVLQLRQMDDLDSVSWYSKEEVLEKEPYASGDIFGASFIQDDVHVEPYFVCKAYVKAAKMLGAEIFEHTPVLHVERDGEALFIKTPSGDVWANHVVVASGVWSGMFFKQLGLNNAFLPVKGECLSVWNDDIPLTKTLYHDHCYIVPRKSGRLVVGATMKPGDWSETPDLGGLESVMKKAKTMLPAIQNMKVDRFWAGLRPGTKDGKPYIGRHPEDSRILFAAGHFRNGILLAPATGALISDLIMNKEVNQDWLHAFRIDRKEAVQI
modifications: His tag
notes: an enzyme that catalyzes the breakdown of glycine; His-tagged, from Bacillus subtilis, expressed in E. coli

Further lines, the molecule ahead of its results:

Molecule: O=C(O)CN(CC(=O)O)c1ccccc1OCCOc1ccccc1N(CC(=O)O)CC(=O)O [BAPTA]
- effect on the decrease in NMDAR-EPSC amplitude induced by 1 mM exogenous glycine ([1]; BAPTA 10 mM in the recording electrode): significant attenuation

Molecule: O=C(N/N=C/c1ccc(O)c(O)c1)c1cc2ccccc2cc1O [dynasore]
- effect on the decrease in NMDAR-EPSC amplitude by 1 mM glycine ([1]; 100 μM dynasore): abolished
- effect on the decrease in NMDAR-EPSC amplitude evoked by 1 mM D-serine ([1]; dynasore): abolished
- effect on the decrease of NMDAR-EPSC amplitude induced by 250 μM glycine ([1]; dynasore, GlyT1+/− mice): abolished

Molecule: C[C@H](Oc1ccc(S(C)(=O)=O)cc1C(=O)N1CCN(c2ncc(C(F)(F)F)cc2F)CC1)C(F)(F)F [Bitopertin]
- tolerability at high dose [4]: relatively well tolerated
